Peptide text beside a SMILES is read from it.
SMILES	logP
O=C1CCCCCCCN1	0.67
N#Cc1ccc(C(O)C(CO)NC(=O)C(Cl)Cl)cc1 (stereo not given)	0.78
NS(=O)(=O)Cc1ccccc1	0.13
COC1=C(N2CC2)C(=O)C(OC)=C(N2CC2)C1=O	0.17
CN(C)CC(O)c1ccccc1 (stereo not given)	1.54
CN(C)c1ccc(C(=O)c2ccc(N(C)C)cc2)cc1	3.87
CC(=O)c1ccc(N(C)C)cc1	2.1
CC(C)(C)C1CCN(N=O)CC1	2.54
CCC1(CC)C(=O)NC(=O)N(C)C1=O	1.15
Cc1cc(Cl)ccc1N=CN(C)C	2.89
O=[N+]([O-])c1ccc(C=NO)o1	0.3
CCOC(=O)Oc1cccc2cccnc12	1.73
CN(C)CCOC(=O)c1ccc(Cl)cc1	2.63
NC(=S)c1ccccc1	1.49
CC(=O)N[C@H](C(=O)N[C@@H](Cc1ccccc1)C(=O)N[C@@H](C)C(N)=O)C(C)C (Ac-Val-Phe-Ala-NH2)	0.06
CCc1ccc2c(c1)C(=O)c1ccc(NC(C)=O)cc1S2(=O)=O	3.44
CC(=O)N[C@@H](C)C(=O)N[C@@H](Cc1ccc(O)cc1)C(=O)N[C@@H](CC(C)C)C(N)=O (Ac-Ala-Tyr-Leu-NH2)	-0.04
COC(=O)CCc1ccccc1	2.32
CC(Oc1cc(Cl)c(Cl)cc1Cl)C(=O)O (stereo not given)	3.8
CNC(=O)Oc1ccc(C(C)C)cc1	2.57
CC(=O)CCCc1ccccc1	2.42
C=CCOC(=O)c1ccccc1C(=O)OCC=C	3.23
CC(=C(C#N)C#N)c1ccccc1	2.1

SMILES	logP
CN(C)C(=O)Nc1cccc([N+](=O)[O-])c1	1.46
COc1cc(SC)c(OC)cc1CC(C)N (stereo not given)	2.17
CC(=O)Sc1ccccc1	2.23
CCCCCn1cnc2c(N)ncnc21	1.79
CN(C)C(N(C)C)=S(I)c1ccc(Cl)cc1 (stereo not given)	-0.2
O=C(O)COc1ccc(C2CCCCC2)cc1	3.79
CC(O)CO (stereo not given)	-0.92
COC1OC(=O)c2ccccc21 (stereo not given)	1
CC(C)NCC(O)COc1cccc2[nH]c3ccccc3c12 (stereo not given)	3.59
OCc1ccccn1	0.06
COc1cccc(OC(=O)c2ccc(N)cc2O)c1	3.25
Cn1ccc2ccccc21	2.72
CSCC[C@H](N)C(=O)O	-1.87
CC(=O)OCCc1ccccc1	2.3
CC(=O)Nc1ccccn1	0.61
Brc1ccc(Br)cc1	3.79
Nc1nc(N)nc(-c2ccccc2I)n1	1.41
COc1cccc(COC(C)=O)c1	2.02
CS(=O)(=O)CC#N	-1.42
FC(F)(F)Sc1ccccc1	3.57
c1ccc(C23CC4CC(CC(C4)C2)C3)cc1	5.55
CC12CCC(=O)C=C1CCC1C2C(O)CC2(C)C1CCC2(O)C(=O)COC(=O)CCCCCC(=O)O (stereo not given)	3.26
CC(=O)Nc1cn[nH]c1	-0.38

SMILES	logP
CC(=O)c1cccc(Cl)c1	2.51
CC(C)(S)[C@@H](N)C(=O)O	-1.78
O=C(O)COc1cccc(F)c1	1.48
Cc1[nH]cnc1CSCCNc1ncc(Cc2ccc3c(c2)OCO3)c(=O)[nH]1	2.11
CN(C)C(=O)OCc1ccc(C#N)cc1	1.67
CN(N=O)C(=O)Nc1ccccc1	1.72
Nc1cnc2ccccc2c1	1.63
CCC(=O)OC1(C(=O)CCl)C(C)CC2C3CCC4=CC(=O)C=CC4(C)C3C(O)CC21C (stereo not given)	3.34
CN(C)c1ccc(S(N)(=O)=O)cc1	0.76
CC(=O)c1ccc(C(O)C(CO)NC(=O)C(Cl)Cl)cc1 (stereo not given)	0.57
NC(=O)Cc1cccs1	0.33
CCOc1ccc([N+](=O)[O-])cc1	2.53
O=C(O)CBr	0.41
COC1=C(OC)C(=O)C(C)=C(C)C1=O	1.26
N#CC1CC1	0.68
CC(C)c1cnc(NS(=O)(=O)c2ccc(N)cc2)nc1	1.23
CC(=O)N[C@@H](CC(C)C)C(=O)N[C@@H](CO)C(=O)N[C@@H](Cc1ccccc1)C(N)=O (Ac-Leu-Ser-Phe-NH2)	0.23
N#CCC(=O)NC(CO)C(O)c1ccc([N+](=O)[O-])cc1 (stereo not given)	-0.22
Cc1noc(NS(=O)(=O)c2ccc(N)cc2)c1C	1.01
Cc1cccc(OC(=O)CNC(=O)c2ccccc2)c1	2.72
CCOc1ccccc1	2.51
O=C(Cc1ccccc1)c1ccccc1	3.18
Nc1ccc(C(=O)Oc2ccccc2F)c(O)c1	3.29

SMILES	logP
O=NN1CCCCC1	0.36
CN1CCc2cccc3c2[C@H]1Cc1ccc(O)c(O)c1-3	2.3
O=C(NO)Nc1ccccc1	0.41
CCCCC(C#N)(Cn1ccnc1)c1ccccc1 (stereo not given)	2.94
COc1ccc2[nH]ccc2c1	2.06
CCN1CC(C(O)C(CC2CCCCC2)NC(=O)C(Cc2cnc[nH]2)NC(=O)C(CC(=O)N2CC(OCOC)C(OCOC)C2)Cc2ccccc2)OC1=O (stereo not given)	2.31
O=C1C=CC(=O)C(Cl)=C1	0.84
O=C(O)c1cccc(Br)c1	2.87
CCNc1nc(NC(C)C)nc(SC)n1	2.98
CCOP(=S)(OCC)SCCS(=O)(=O)CC	1.87
CN1CC[C@]23c4c5ccc(O)c4O[C@H]2C(=O)CC[C@@]3(O)[C@H]1C5	0.83
C1CCc2nnnn2CC1	0.14
O=C(O)c1ccc(O)cc1	1.58
COc1cnc(NS(=O)(=O)c2ccc(N)cc2)nc1	0.41
Cc1ccc(COC(N)=O)cc1	1.76
CN(C)C(=O)C=Cc1ccccc1	1.73
O=C(CN1CCCCC1)Nc1ccccc1F	2.16
CC(=O)COc1ccccc1	1.04
COc1ccccc1C(=O)O	1.59
CN(C)c1ccc2c(c1)C(=O)N(O)C2=O	1.27
C#CCCCC	2.73
CC(=O)OCc1ccc([N+](=O)[O-])cc1	1.73
COc1cccc(OC)c1C(=O)O	0.66

SMILES	logP
CN(C)C(N(C)C)=S(I)c1ccc(C#N)cc1 (stereo not given)	-1.13
CC(=O)CC(=O)C(C)(C)C	1.67
CCCCOC(=O)N(C)SN(C)C(=O)Oc1cccc2c1OC(C)(C)C2	4.7
c1cncc([C@@H]2CCCN2)c1	0.17
Cc1cccc(C)c1C	3.66
CC(C)COC(=O)n1cnc(CC(NC(=O)C2CCC(=O)N2)C(=O)N2CCCC2C(N)=O)c1 (stereo not given)	-0.44
CC(=O)OCc1ccc(Cl)cc1	2.59
COc1cc(Cl)c(Nc2ccccc2CC(=O)O)c(Cl)c1	4.44
CCc1ccc(S(N)(=O)=O)cc1	1.31
C=CCC1(C(C)CCC)C(=O)NC(=S)NC1=O (stereo not given)	3.23
CCC(CC)C(=O)NC(N)=O	0.91
OCC(O)CO	-1.76
NC(=O)c1cnc2ccccc2n1	0.98
CNC(=O)c1ccccc1C(=O)c1ccccc1	2.09
Nc1ccnc2ccccc12	1.63
COC(=O)C(=O)OC	-0.17
Cc1ccccc1OC(=O)c1ccc(N)cc1O	3.14
CC(=O)NC(C)(C)C(N)=O	-0.87
OCC(Br)(Br)Br	2.1
O=C1CCC(c2ccccc2)(C2CCN(Cc3ccccc3)CC2)C(=O)N1 (stereo not given)	3.55
CN(C)C(N(C)C)=S(I)c1ccc(I)cc1 (stereo not given)	0.28
NC(=O)c1ccccc1C(N)=O	-1.73
O=[N+]([O-])c1ccsc1	1.55
